Source: the NIST ThermoML archive (doi:10.1021/acs.jced.6b00828)
Numbers after ± are expanded uncertainties.

Assay: wn = mass fraction of the nth substance listed
Conditions: 323.15 K, 101.3 kPa, Liquid, Vibrating tube method

Which mass density (w1 = 0.3732) does the source give for [Cl-].[Cl-].[Mg+2] [magnesium chloride] + O here?
Its mass density is 1343.2 ± 0.9 kg/m3.

With O=[PH2][O-].O=[PH2][O-].[Mg+2] [magnesium hypophosphite] + O as the compound, how does the mass density (w1 = 0.2243) read?
The mass density was 1167.5 ± 0.4 kg/m3.

With O=[PH2][O-].[Na+] [sodium phosphinate] + O as the compound, how does the mass density (w1 = 0.5786) read?
The mass density was 1438.8 ± 1.1 kg/m3.
